Results as given in patent US20160153991A1, “Synbodies for Detection of Human Norovirus” (priority 2013, published 2016).

Columns and labels:
Type in all cases: binding, Norovirus
[1] = biological target: nVLP GII.4; assay: Surface plasmon resonance (SPR) screening of optimized peptides against GII.4; conditions: unpurified peptides against nVLP GII.4; for kd-1: SPR dissociation rate; for % Stability / Avg Binding (Spot 1/2): SPR
Experimental: These 96 peptides were synthesized and tested unpurified against GII.4 via surface plasmon resonance (SPR), a sample of which is shown in FIG. 3. Peptides candidates were analyzed and selected for improved binding and slower dissociation rate. Finally, a list of 10 peptide candidates with improved binding and slower dissociation rates were chosen to construct bivalent peptide affinity reagents (synbodies).

[2] = test system: GII.4 Minerva VLP
[3] = test system: GII.4 Sydney VLP; conditions: GII.4 Sydney VLP (VP1 identity 95%)

Substance | kd-1 [1] | % Stability [1] | Avg Binding (Spot 1/2) [1] | Enrichment Factor from 1 ng/μL solution ([2]; GII.4 Minerva VLP (VP1 identity 100%), 1 ng/μL solution) | enrichment of VLP (in words) ([2]; either GII.4 Minerva or both GII.4 Minerva and GII.4 Sydney) | Enrichment Factor from 1 ng/μL solution [3]
VWARKNNKRKKDFNAGWGSC [Mut Peptide-53, optimized peptide] | 0.00408 s | 51% | 188.8 |  |  | 
RWVRVKLRSHTELNRYIGSC [Mut Peptide-93, optimized peptide] | 0.00332 s | 60% | 274.2 |  |  | 
AWARSNNSRSKAFNLGWGSC [Mut Peptide-81, optimized peptide] | 0.00455 s | 45% | 127.9 |  |  | 
LLYNKTFPHGRWSPSYPGSC [nVLP-1WT] | 0.00785 s | 25% | 71.5 |  |  | 
Syn 6-6: synbody 6-6 from Table 2; scaffold not stated (Table 2 lists both nVLP6-6-1571 and nVLP6-6MAP2) (RWHRVDLRSHTELPRYIGSC) |  |  |  | 16 | enrichment | n.e.
SWARSNNKRSKAFNLGWGSC [Mut Peptide-78, optimized peptide] | 0.00431 s | 46% | 168.8 |  |  | 
RWHRVKLRSHTELNRYIGSC [Mut Peptide-92, optimized peptide] | 0.00355 s | 57% | 229.5 |  |  | 
DWARSNTSRSMDFNLGWGSC [nVLP-2WT] | 0.0233 s |  | 2.5 |  |  | 
DWARKNNKRKMNFNLGWGSC [Mut Peptide-60, optimized peptide] | 0.00487 s | 44% | 134.3 |  |  | 
RWHRVDLRSHTELPRYIGSC [nVLP-6WT] | 0.00513 s | 37% | 175.7 |  |  | 
RWVRVKLRSHTKLRYIGSC [Mut Peptide-94, optimized peptide] | 0.00294 s | 63% | 358.2 |  |  | 
